Several values for one entry are separate records, joined by “and”; a condition that tells them apart may be missing. Equal values may be shown once. Read-outs that look alike come from different tables or passages of the source.
Assays:
[1] = molecular target: T1, GLUT4 (Mus musculus, UniProt P14142); assay: Kinetic (Scatchard) analysis of indinavir effect on ATB-BMPA labeling of GLUT4 in LDM; type: binding; design: LDM contains small intracellular vesicles of GLUT4 and GLUT1; endogenous in cells; host or cells: low-density microsome fraction of differentiated 3T3-L1 adipocytes; details: Scatchard plot
T1 sequence (P14142 1-509): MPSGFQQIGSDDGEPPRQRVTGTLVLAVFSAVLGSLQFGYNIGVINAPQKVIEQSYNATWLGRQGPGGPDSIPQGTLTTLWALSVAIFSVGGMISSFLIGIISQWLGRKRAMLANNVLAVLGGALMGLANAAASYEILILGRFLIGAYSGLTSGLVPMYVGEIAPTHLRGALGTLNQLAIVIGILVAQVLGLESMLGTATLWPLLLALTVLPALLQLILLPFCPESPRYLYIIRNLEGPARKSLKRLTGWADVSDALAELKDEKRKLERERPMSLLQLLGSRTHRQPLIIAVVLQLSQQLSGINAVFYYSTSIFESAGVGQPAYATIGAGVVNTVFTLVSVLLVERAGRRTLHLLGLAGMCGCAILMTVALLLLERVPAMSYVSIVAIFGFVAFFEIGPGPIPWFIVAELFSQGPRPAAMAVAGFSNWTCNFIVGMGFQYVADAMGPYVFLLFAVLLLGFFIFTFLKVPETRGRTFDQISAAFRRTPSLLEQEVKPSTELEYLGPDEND
Protocol: ATB-BMPA (50, 100, 200, 300 µM final concentration) was then added for an additional 10 min (5 min at room temperature, 5 min at 4 °C). Samples (110 µl final volume) were UV irradiated as described above. After removal of excess label with a desalting spin column, GLUT4 protein was immunoprecipitated from Thesit-solubilized LDM using a GLUT4 C-terminal directed antibody. ATB-BMPA-bound GLUT4 was analyzed by immunoblot analysis using an IR Dye 800 CW fluorescent streptavidin (LI-COR) and quantified with an Odyssey Infrared Imaging System. Identical samples that were not UV irradiated were used to correct for non-specific binding. The free ATB-BMPA concentration was assumed to be equal to the total ATB-BMPA concentration since the label concentration far exceeded the GLUT4 concentration. The data was expressed as Scatchard plots, bound/free versus bound. The Bmax and Kd values were determined from the horizontal intercept and the negative […], respectively.

[2] = molecular target: human erythrocytes; design: method as in PMID 2390055; details: read-out: Ki for inhibition of sugar uptake; cited from earlier work
[3] = molecular target: insulin-stimulated rat adipocytes; details: read-out: Ki for inhibition of sugar uptake; cited from earlier work
[4] = molecular target: T2, GLUT1 (Mus musculus, UniProt P17809); assay: ATB-BMPA photolabeling of low-density microsomes (LDM) from 3T3-L1 adipocytes, GLUT1; type: binding; details: for IC50: LDM 200 µg, biotinylated ATB-BMPA 50 µM, mean ± S.E., n = 3, read-out: Half-maximal inhibition (IC50) of ATB-BMPA binding to GLUT1
T2 construct: LDM contains small intracellular vesicles of GLUT4 and GLUT1; endogenous in cells; host or cells: low-density microsome fraction of differentiated 3T3-L1 adipocytes
T2 sequence (P17809 1-492): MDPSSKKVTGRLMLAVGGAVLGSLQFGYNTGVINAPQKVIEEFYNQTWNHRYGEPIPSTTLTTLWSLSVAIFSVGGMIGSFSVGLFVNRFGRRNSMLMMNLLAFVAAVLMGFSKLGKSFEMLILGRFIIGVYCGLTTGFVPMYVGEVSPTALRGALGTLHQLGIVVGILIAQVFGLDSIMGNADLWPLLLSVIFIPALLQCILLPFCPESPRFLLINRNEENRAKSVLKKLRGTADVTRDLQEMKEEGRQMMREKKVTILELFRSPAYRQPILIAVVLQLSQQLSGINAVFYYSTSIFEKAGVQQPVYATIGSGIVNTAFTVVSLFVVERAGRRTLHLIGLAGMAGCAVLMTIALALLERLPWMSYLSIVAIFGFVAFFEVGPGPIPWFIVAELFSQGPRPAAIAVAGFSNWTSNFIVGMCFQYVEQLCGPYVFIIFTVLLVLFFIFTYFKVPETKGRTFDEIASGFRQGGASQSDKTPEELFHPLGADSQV
Protocol: (§1) 3T3-L1 fibroblasts were grown to confluency and 48 h later subjected to differentiation as previously described. 3T3-L1 adipocytes were used 10 – 14 days after differentiation. Six culture dishes (15 cm) of adipocytes were serum-starved overnight, washed 3 times with ice-cold HES buffer (50 mM Hepes, pH 7.4, 255 mM sucrose, and 1 mM EDTA) containing Roche complete protease inhibitors (Roche Applied Science, Mannheim, Germany), scraped into 5 ml of the same buffer, and then homogenized with either a ball-bearing homogenizer or with a Potter-Elvehjem tissue grinder and a PTFE pestle. The low-density microsome (LDM) fraction was obtained by differential centrifugation as described previously. LDM were resuspended in phosphate buffer (25 mM phosphate, pH 7.4, 100 mM NaCl, 5% glycerol) containing complete Roche protease inhibitors.
(§2) Inhibitors were added to LDM (200 µg protein unless otherwise stated) for 10 min at room temperature. Samples (final volume 110 µl) were then incubated for 10 min at room temperature in the dark with biotinylated ATB-BMPA (50 µM final concentration) and then placed on ice prior to UV irradiation. Reactions were transferred to a 24-well low protein retention culture dish (Costar, Corning, NY) and then irradiated at room temperature 5 cm from a Green Spot UV lamp for 1 min (30 sec of light, followed by 30 sec of darkness, followed by 30 sec of light).
(§3) 20 µl of BSA (1.5 mg/ml final concentration) was added to the UV irradiated samples in a siliconized eppendorph tube. Excess biotinylated ATB-BMPA label was removed using a 0.5 ml Zeba Spin Desalting Column (Pierce). Biotinylated proteins were isolated essentially as described previously. Membranes were solubilized for 30 min at 4°C with 2% Thesit detergent buffer containing protease inhibitors. After centrifugation at 16,000 x g for 10 min, the supernatants were incubated overnight at 4°C with 50 µl of high capacity Streptavidin Agarose resin (Pierce). Precipitates were washed 3 times with 1% Thesit detergent buffer, twice with 0.1% Thesit detergent buffer, and once with phosphate buffer. Biotinylated proteins were eluted at 95 – 100°C for 20 min in 60 µl of 2X Laemmli Sample Buffer containing 40 mM dithiothreitol. Half of the eluted proteins were subjected to SDS-PAGE and transferred to nitrocellulose. Immunoblot analysis was carried out using GLUT4 and GLUT1 specific antibodies and quantified using an Odyssey Infrared Imaging System (LI-COR Biosciences, Lincoln, NE).

[5] = molecular target: T1, GLUT4; assay: ATB-BMPA photolabeling of low-density microsomes (LDM) from 3T3-L1 adipocytes, GLUT4; type: binding; design: LDM contains small intracellular vesicles of GLUT4 and GLUT1; endogenous in cells; host or cells: low-density microsome fraction of differentiated 3T3-L1 adipocytes; details: for IC50: LDM 200 µg, biotinylated ATB-BMPA 50 µM, mean ± S.E., n = 3, read-out: Half-maximal inhibition (IC50) of ATB-BMPA binding to GLUT4; for Selectivity GLUT4 vs GLUT1, inhibition of ATB-BMPA labeling: LDM of 3T3-L1 adipocytes
Protocol: as §1, §2, §3

[6] = system: primary rat adipocytes; assay: 2-Deoxyglucose uptake in insulin-stimulated primary rat adipocytes (predominantly GLUT4); type: cell-based; details: for Effect on 2-deoxyglucose uptake (GLUT4 transporter activity): primary rat adipocytes
Protocol: Adipocytes from epididymal fat pads were prepared from male Wistar rats weighing 150 – 200 g (from Charles River Laboratories, Inc., Wilmington, MA) as previously described. Adipocytes were stimulated with 1 µM insulin for 30 min at 37°C prior to use. 2-Deoxyglucose uptakes were performed by adding 80 µl of the cell suspension to 80 µl of Krebs-Ringer bicarbonate Hepes buffer (KRB) (120 mM NaCl, 4 mM KH2PO4, 1 mM MgSO4, 1 mM CaCl2, 10 mM NaHCO3, 200 nM adenosine, 30 mM Hepes, pH 7.4) containing 3% bovine serum albumin. HIV protease inhibitors / vehicle were added 5 min prior to the initiation of the reaction. Uptakes were initiated with the addition of 20 µl of [^3H]2-deoxyglucose (final 2-deoxyglucose concentration 50 µM; 0.5 µCi/assay). After 1 min at 37 °C, reactions were quenched with cytochalasin B to a final concentration of 0.4 mM. The cells were separated by spinning the reaction through dinonylphthalate as previously described and the intracellular radioactivity was quantified by liquid scintillation counting. Non-specific uptake measured in the presence of 20 µM cytochalasin B (Sigma) was subtracted from the experimental values.

[7] = system: 3T3-L1 fibroblasts; assay: 2-Deoxyglucose uptake in 3T3-L1 fibroblasts (express only GLUT1); type: cell-based; details: 3T3-L1 fibroblasts
Protocol: 3T3-L1 fibroblasts were grown to confluency in Dulbecco's modified Eagle's medium (DMEM) supplemented with 10% calf serum. The uptake of [^3H]2-Deoxyglucose (50 µM) was measured in Krebs-Ringer phosphate buffer for 6 min at 37°C as previously described. HIV protease inhibitors were added 6 min prior to the start of the reaction. Non-specific uptake measured in the presence of 20 µM cytochalasin B (Sigma) was subtracted from the experimental values.

[8] = system: myotubes; design: method as in PMID 1401073; details: read-out: IC50 for inhibition of 2-deoxy-glucose uptake into myotubes; cited from earlier work
[9] = 10 µM PI (therapeutic concentration)

Effect on ATB-BMPA labeling of GLUT1 [4, 9]	Effect on ATB-BMPA labeling of GLUT1 ([4]; 50 µM PI)	Effect on ATB-BMPA labeling of GLUT4 [5, 9]	Effect on ATB-BMPA labeling of GLUT4 ([5]; 50 µM PI)	Selectivity GLUT4 vs GLUT1, inhibition of ATB-BMPA labeling [5]	Selectivity GLUT4 vs GLUT1, inhibition of ATB-BMPA labeling ([5]; listed as atazanavir)	Compound	Kd ([1]; 0 µM indinavir, read-out: Kd of ATB-BMPA binding to GLUT4) [µM]	Kd ([1]; 10 µM indinavir, read-out: Kd (apparent) of ATB-BMPA binding to GLUT4) [µM]	Kd ([1]; 20 µM indinavir, read-out: Kd (apparent) of ATB-BMPA binding to GLUT4) [µM]	Kd ([1]; 50 µM indinavir, read-out: Kd (apparent) of ATB-BMPA binding to GLUT4) [µM]	Ki [2] [µM]	Ki [3] [µM]	IC50 [4]	IC50 [5] [µM]	Effect on 2-deoxyglucose uptake (GLUT4 transporter activity) ([6]; 10 µM PI)	Effect on 2-deoxyglucose uptake (GLUT4 transporter activity) ([6]; 50 µM PI)	Selectivity GLUT4 vs GLUT1, inhibition of glucose uptake ([6]; primary rat adipocytes vs 3T3-L1 fibroblasts)	Effect on 2-deoxyglucose uptake (GLUT1 transporter activity) ([7]; 10 µM PI)	Effect on 2-deoxyglucose uptake (GLUT1 transporter activity) ([7]; 50 µM PI)	IC50 [8] [µM]
–	–	–	–	–	–	O=C(CCCCC1SCC2NC(=O)NC21)NCCCCCC(=O)NCCOCCOCCOc1cc(C2(C(F)(F)F)N=N2)ccc1C(=O)NC(CO[C@H]1[C@H](O)[C@H](O)C(O)O[C@@H]1CO)CO[C@H]1[C@H](O)[C@H](O)C(O)O[C@@H]1CO (stereo partly shown) [ATB-BMPA]	75	152	218	510	~350	~350	–	–	–	–	–	–	–	–
no effect	affected	no effect	affected	non-specific GLUT inhibitor	non-selective	COC(=O)N[C@H](C(=O)N[C@@H](Cc1ccccc1)[C@@H](O)CN(Cc1ccc(-c2ccccn2)cc1)NC(=O)[C@@H](NC(=O)OC)C(C)(C)C)C(C)(C)C [Atazanavir, atazanavir]	–	–	–	–	–	–	59 ± 4.8 µM	66 ± 3.3	no effect	affected	non-specific GLUT inhibitor	no effect	affected	–
–	–	–	–	–	–	C=C1[C@@H](C)[C@H]2[C@H](Cc3ccccc3)NC(=O)[C@]23OC(=O)/C=C/[C@H](O)CCC[C@@H](C)C/C=C/[C@H]3[C@@H]1O [CB, cytochalasin B]	–	–	–	–	–	–	0.35 µM and 0.36 µM	0.44 ± 0.07	–	–	–	–	–	0.4
